{
  "source": "patent US6586407B1",
  "about": "“Injectable pharmaceutical formulations for partricin derivatives” (Quatex N.V., priority 1998, dated 2003)",
  "system": "mice",
  "test": "Single dose i.v. toxicity (LD50) in mice",
  "type": "in vivo",
  "description": "In single dose testing in mice, the i.v. 50% lethal dose (LD50) of the SPA-S-843 formulation, obtained according to Example 15, is increased from 70 mg/kg to >200 mg/kg",
  "data": [
    {"smiles": "CNc1ccc(C(=O)CC(O)CC[C@H](C)C2OC(=O)C[C@H](O)CC(=O)C[C@H](O)C[C@H](O)C[C@H](O)C[C@H](O)C[C@]3(O)C[C@H](O)[C@@H](C(=O)NCCN(C)C)[C@H](C[C@@H](O[C@@H]4O[C@H](C)[C@@H](O)[C@H](NC(=O)CN(C)C)[C@@H]4O)/C=C/C=C/C=C/C=C/C=C/C=C/C=C/C2C)O3)cc1.N[C@@H](CC(=O)O)C(=O)O.N[C@@H](CC(=O)O)C(=O)O", "note": "(stereo partly shown) [SPA-S-843, N-dimethylaminoacetyl-partricin A 2-dimethylamino-ethylamide diascorbate]", "values": [
      {"measurement": "i.v. 50% lethal dose (LD50)", "value": 70, "unit": "mg/kg"}
    ]}
  ]
}
